According to PubChem BioAssay AID328 (DTP/NCI, 2004):
Several values for one entry are separate records, joined by “and”; a condition that tells them apart may be missing. Identical values can stand only once. Toxic doses and inconclusive results are not listed.

Test system: BDF1 mice, P388 leukemia ip, median survival T/C
Experiment: NCI In Vivo Anticancer Drug Screen. Data for tumor model P388 Leukemia (intraperitoneal) in B6D2F1 (BDF1) mice
Conditions: endpoint: median survival time, higher = longer survival
Summary of the method: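 Mice carrying the transplantable tumour receive compound or vehicle. Survival is followed in each arm, and the treated measure is divided by the vehicle measure.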

[1] = dose: 100.0 mg/kg/injection, schedule: Q04DX003 (ip), vehicle: Klucel (hydroxypropylcellulose) (HPC)
[2] = dose: 200.0 mg/kg/injection, schedule: Q04DX003 (ip), vehicle: Klucel (hydroxypropylcellulose) (HPC)
[3] = dose: 400.0 mg/kg/injection, schedule: Q04DX003 (ip), vehicle: Klucel (hydroxypropylcellulose) (HPC)
[4] = dose: 50.0 mg/kg/injection, schedule: Q01DX009 (ip), vehicle: saline
[5] = dose: 100.0 mg/kg/injection, schedule: Q01DX009 (ip), vehicle: saline
[6] = dose: 200.0 mg/kg/injection, schedule: Q01DX009 (ip), vehicle: saline
[7] = dose: 25.0 mg/kg/injection, schedule: Q01DX009 (ip), vehicle: saline with Tween-80
[8] = dose: 50.0 mg/kg/injection, schedule: Q01DX009 (ip), vehicle: saline with Tween-80
[9] = dose: 100.0 mg/kg/injection, schedule: Q01DX009 (ip), vehicle: saline with Tween-80
[10] = dose: 200.0 mg/kg/injection, schedule: Q01DX009 (ip), vehicle: saline with Tween-80
[11] = dose: 100.0 mg/kg/injection, schedule: Q04DX003 (ip), vehicle: saline with Tween-80
[12] = dose: 200.0 mg/kg/injection, schedule: Q01DX009 (ip), vehicle: Klucel (hydroxypropylcellulose) (HPC)
[13] = dose: 25.0 mg/kg/injection, schedule: Q01DX009 (ip), vehicle: saline
[14] = dose: 100.0 mg/kg/injection, schedule: Q04DX003 (ip), vehicle: saline
[15] = dose: 200.0 mg/kg/injection, schedule: Q04DX003 (ip), vehicle: saline
[16] = dose: 400.0 mg/kg/injection, schedule: Q04DX003 (ip), vehicle: saline

For `COc1ccc(C2=CCCC2)cc1`, the T/C [1] was 108 % of control, the T/C [2] was 95 % of control and the T/C [3] was 100 % of control.
In the case of `CN1C(=O)N(C)C2(C=Cc3cc([N+](=O)[O-])ccc3O2)N(C)C1=O`, the T/C [4] is reported as 99 % of control, the T/C [5] is reported as 101 % of control and the T/C [6] is reported as 99 % of control.
In the case of `CNc1nc(N)c(N=O)c(Nc2ccc(Br)cc2)n1`, the T/C (dose: 62.5 mg/kg/injection, schedule: Q01DX010 (ip), vehicle: carboxymethylcellulose (CMC)) is reported as 105 % of control, the T/C (dose: 125.0 mg/kg/injection, schedule: Q01DX010 (ip), vehicle: carboxymethylcellulose (CMC)) is reported as 110 % of control and the T/C (dose: 250.0 mg/kg/injection, schedule: Q01DX010 (ip), vehicle: carboxymethylcellulose (CMC)) is reported as 100 % of control. For the same compound, the T/C (dose: 500.0 mg/kg/injection, schedule: Q01DX010 (ip), vehicle: carboxymethylcellulose (CMC)) was 100 % of control.
In the case of `COc1ccc2nonc2c1`, the T/C [7] is reported as 102 % of control, the T/C [8] is reported as 93 % of control and the T/C [9] is reported as 90 % of control. For the same compound, the T/C [10] was 106 % of control.
With `Nc1nc(SCc2ccccc2)c2ncn(C3OC(CO)CC3O)c2n1` (stereo not given) the T/C (dose: 100.0 mg/kg/injection, schedule: Q01DX009 (ip), vehicle: saline sonified) was 100 % of control, the T/C (dose: 100.0 mg/kg/injection, schedule: Q04DX003 (ip), vehicle: saline sonified) was 109 % of control and the T/C (dose: 200.0 mg/kg/injection, schedule: Q01DX009 (ip), vehicle: saline sonified) was 100 % of control. For the same compound, the T/C (dose: 200.0 mg/kg/injection, schedule: Q04DX003 (ip), vehicle: saline sonified) was 109 % of control, the T/C (dose: 400.0 mg/kg/injection, schedule: Q01DX009 (ip), vehicle: saline sonified) was 113 % of control and the T/C (dose: 400.0 mg/kg/injection, schedule: Q04DX003 (ip), vehicle: saline sonified) was 109 % of control.
For `COc1ccccc1NC(=O)Oc1ccc(OCc2ccccc2)cc1`, the T/C [11] was 95 % of control, the T/C (dose: 200.0 mg/kg/injection, schedule: Q04DX003 (ip), vehicle: saline with Tween-80) was 87 % of control and the T/C (dose: 400.0 mg/kg/injection, schedule: Q04DX003 (ip), vehicle: saline with Tween-80) was 100 % of control.
For `O=C1c2ccccc2C(=O)c2cc(S(=O)(=O)Cl)ccc21`, the T/C (dose: 100.0 mg/kg/injection, schedule: Q01DX001 (ip), vehicle: saline) was 109 % of control, the T/C (dose: 200.0 mg/kg/injection, schedule: Q01DX001 (ip), vehicle: saline) was 109 % of control and the T/C (dose: 400.0 mg/kg/injection, schedule: Q01DX001 (ip), vehicle: saline) was 90 % of control.
In the case of `BrCC1CCCO1` (stereo not given), the T/C [7] is reported as 101 % of control and the T/C [8] is reported as 110 % of control.
With `C=C1C(=O)O[C@@H]2/C=C(\CO)CC/C=C(\C)C[C@H](OC(=O)C(C)CO)[C@@H]12` (stereo not given in full) the T/C (dose: 2.75 mg/kg/injection, schedule: Q01DX009 (ip), vehicle: alcohol) was 118 % of control.
For `Nc1cc(S(N)(=O)=O)ccc1SSc1ccc(S(N)(=O)=O)cc1N`, the T/C [5] was 122 % of control and the T/C [6] was 154 % of control.
`N#CC1(Nc2ccccc2)CCCCC1` was tested, and the T/C [7] was 115 % of control, the T/C (dose: 50.0 mg/kg/injection, schedule: Q04DX003 (ip), vehicle: saline with Tween-80) was 109 % of control and the T/C [11] was 109 % of control.
With `CC(N)C(=O)NCCN(C)C` (stereo not given) the T/C (dose: 50.0 mg/kg/injection, schedule: Q01DX005 (ip), vehicle: saline) was 95 % of control, the T/C (dose: 100.0 mg/kg/injection, schedule: Q01DX005 (ip), vehicle: saline) was 107 % of control and the T/C (dose: 200.0 mg/kg/injection, schedule: Q01DX005 (ip), vehicle: saline) was 99 % of control.
In the case of `O=c1ccc2nc3cc(Cl)ccc3sc-2c1`, the T/C (dose: 100.0 mg/kg/injection, schedule: Q01DX009 (ip), vehicle: Klucel (hydroxypropylcellulose) (HPC)) is reported as 109 % of control, the T/C [1] is reported as 100 % of control and the T/C [12] is reported as 95 % of control and 105 % of control. For the same compound, the T/C [2] was 90 % of control, the T/C (dose: 400.0 mg/kg/injection, schedule: Q01DX009 (ip), vehicle: Klucel (hydroxypropylcellulose) (HPC)) was 100 % of control and the T/C [3] was 90 % of control.
With `CC1(C(=O)N2CC2)OC1c1ccccc1` (stereo not given) the T/C (dose: 25.0 mg/kg/injection, schedule: Q04DX002 (ip), vehicle: saline with Tween-80) was 91 % of control, the T/C (dose: 50.0 mg/kg/injection, schedule: Q04DX002 (ip), vehicle: saline with Tween-80) was 98 % of control and the T/C (dose: 100.0 mg/kg/injection, schedule: Q04DX002 (ip), vehicle: saline with Tween-80) was 96 % of control and 100 % of control.
With `O=C1CN(Cc2ccc3c(c2)OCO3)NO1` the T/C [7] was 113 % of control, the T/C [8] was 106 % of control and the T/C [9] was 123 % of control. The T/C [10] was 115 % of control.
For `COC1=C(C2=C(OC)C(=O)c3cc4oc(C)cc(=O)c4c(O)c3C2=O)C(=O)c2c(cc3oc(C)cc(=O)c3c2O)C1=O`, the T/C (dose: 0.37 mg/kg/injection, schedule: Q01DX009 (ip), vehicle: saline) was 99 % of control, the T/C (dose: 0.75 mg/kg/injection, schedule: Q01DX009 (ip), vehicle: saline) was 105 % of control and the T/C (dose: 1.5 mg/kg/injection, schedule: Q01DX009 (ip), vehicle: saline) was 111 % of control. For the same compound, the T/C (dose: 3.0 mg/kg/injection, schedule: Q01DX009 (ip), vehicle: saline) was 101 % of control.
`CCN(C(=O)Nc1ccccc1)c1ccccc1` was tested, and the T/C (dose: 100.0 mg/kg/injection, schedule: Q01DX001 (ip), vehicle: saline with Tween-80) was 104 % of control, the T/C (dose: 200.0 mg/kg/injection, schedule: Q01DX001 (ip), vehicle: saline with Tween-80) was 90 % of control and the T/C (dose: 400.0 mg/kg/injection, schedule: Q01DX001 (ip), vehicle: saline with Tween-80) was 95 % of control.
In the case of `Cc1cn(C2CC(O)C(CO)O2)c(=O)[nH]c1=O` (stereo not given), the T/C (dose: 500.0 mg/kg/injection, schedule: Q04DX003 (ip), vehicle: saline) is reported as 101 % of control, the T/C (dose: 750.0 mg/kg/injection, schedule: Q04DX003 (ip), vehicle: saline) is reported as 111 % of control and the T/C (dose: 1000.0 mg/kg/injection, schedule: Q04DX003 (ip), vehicle: saline) is reported as 104 % of control.
In the case of `c1ccc(-c2nc3ccccc3nc2-c2ccc(-c3ccc(-c4nc5ccccc5nc4-c4ccccc4)cc3)cc2)cc1`, the T/C [8] is reported as 88 % of control and the T/C [10] is reported as 88 % of control.
In the case of `CCOC(=O)C(C(=O)OCC)C(=O)c1cc(-c2ccc(Cl)c(Cl)c2)nc2c(Cl)cc(Cl)cc12`, the T/C (dose: 50.0 mg/kg/injection, schedule: Q01DX009 (ip), vehicle: Klucel (hydroxypropylcellulose) (HPC)) is reported as 100 % of control and the T/C [12] is reported as 91 % of control.
For `CC1=C/C(=N\N=C2/C=C(C)CC(C)(C)C2)CC(C)(C)C1`, the T/C [1] was 104 % of control, the T/C [2] was 109 % of control and the T/C [3] was 100 % of control.
With `Cc1ccc(N2C(=O)C=CC2=O)cc1` the T/C (dose: 5.0 mg/kg/injection, schedule: Q01DX009 (ip), vehicle: saline sonified) was 100 % of control, the T/C (dose: 10.0 mg/kg/injection, schedule: Q01DX009 (ip), vehicle: saline sonified) was 119 % of control and the T/C (dose: 20.0 mg/kg/injection, schedule: Q01DX009 (ip), vehicle: saline sonified) was 100 % of control.
In the case of `O=NNc1ccccn1`, the T/C (dose: 3.12 mg/kg/injection, schedule: Q01DX009 (ip), vehicle: saline) is reported as 105 % of control, the T/C (dose: 12.5 mg/kg/injection, schedule: Q01DX009 (ip), vehicle: saline) is reported as 214 % of control and the T/C [13] is reported as 112 % of control.
`O=C(c1ccccc1)N1CCC(CCO)C(O)C1Cc1c[nH]c2ccccc12` (stereo not given) was tested, and the T/C [13] was 100 % of control, the T/C [4] was 96 % of control and the T/C (dose: 50.0 mg/kg/injection, schedule: Q04DX003 (ip), vehicle: saline) was 96 % of control. For the same compound, the T/C [5] was 86 % of control, the T/C [14] was 100 % of control and the T/C [6] was 108 % of control. For the same compound, the T/C [15] was 96 % of control, the T/C (dose: 400.0 mg/kg/injection, schedule: Q01DX009 (ip), vehicle: saline) was 110 % of control and the T/C [16] was 98 % of control.
With `COC(=O)CCCc1cc(O)c2c(c1O)C(=O)c1ccccc1C2=O` the T/C (dose: 100.0 mg/kg/injection, schedule: Q01DX001 (ip), vehicle: saline sonified) was 100 % of control, the T/C (dose: 200.0 mg/kg/injection, schedule: Q01DX001 (ip), vehicle: saline sonified) was 100 % of control and the T/C (dose: 400.0 mg/kg/injection, schedule: Q01DX001 (ip), vehicle: saline sonified) was 95 % of control.
For `CCOC1NC(C)(C)CO1` (stereo not given), the T/C [14] was 100 % of control, the T/C [15] was 91 % of control and the T/C [16] was 95 % of control.
In the case of `CCN(/C=C/C=C(C#N)C#N)CC`, the T/C [8] is reported as 109 % of control and the T/C [9] is reported as 88 % of control.
